From patent publication US20150057317A1, “GABR-A2 DIAGNOSTIC” (AstraZeneca AB, priority 2011, published 2015)

Legend:
[1] = test system: patients with MDD; conditions: cited from earlier work
[2] = target: NR1A/2A subtype of the NMDA receptor (Homo sapiens, UniProt Q05586+Q12879); conditions: cited from earlier work
[3] = test system: patients with depression (poor responders to medications used in the treatment of depression); test: Phase II study in depression, MADRS response by GABR-A2 SNP genotype; format: in vivo, human; conditions: for Additive genetic effect of minor allele on change in MADRS total score: treatment group
Source text: Genomic DNA samples were collected from individuals enrolled in a Phase 11 study of COMPOUND A (total number of patients in the study was 152). The Phase II study was designed to measure the efficacy of COMPOUND A in the treatment of depression. Patients were selected for enrolment in the aforementioned Phase II study on the basis of their prior treatment history which defined them as poor responders to medications used in the treatment of depression. Common genetic variations (single nucleotide polymorphisms, SNPs) in genes encoding brain derived neurotrophic factor (BDNF) and the alpha-2 subunit of the GABAA receptor (GABR-A2) were tested using TaqMan® assays to measure their influence on the response to treatment for depression with COMPOUND A (an N-methyl-D-aspartate (NMDA) antagonist). Montgomery-Åsberg Depression Rating Scale (MADRS; Montgomery SA, Asberg M (April 1979). “A new depression scale designed to be sensitive to change”. British Journal of Psychiatry 134 (4): 382-89) was used as a measurement of treatment response. Thirty-two SNPs were selected for genotyping in GABR-A2 and six SNPs in BDNF.
However, the results from the GABR-A2 gene did indicate an influence on change in MADRS from baseline for a number of SNPs, with the rs3756007 SNP showing the strongest association. Table 1 lists those genetic variations tested for which, on average, the minor allele positively influenced change in MADRS after treatment with COMPOUND A. The P value from the patients treated with the drug (treatment group) is also shown (therapeutic_pvalue).
TaqMan® assays were used to detect the particular SNPs within the target genes. Each TaqMan® assay is specific for a given mutation or allele, i.e. designed to detect an alternate base relative to another base at a given position. each TaqMan® assay contains sequence-specific forward and reverse primers to amplify the polymorphic sequence of interest in the target gene along with TaqMan® probes labelled with different fluorescent tags to identify the target base (SNP). The TaqMan® assays were ordered from Applied Biosystems® and where possible Pre-Designed SNP Genotyping Assays were used. Each of the GABR-A2 SNPs showing association with an influence on the response to treatment for depression with COMPOUND A were detected using the commercially available Pre-Designed SNP Genotyping Assays.
For each SNP assay, genomic DNA was extracted from the clinical sample and the TaqMan® assay was carried out using the primers in Table 2. For the TaqMan® reaction approximately 10 ng of genomic DNA was used, in a total reaction volume of 2 ul. The reaction used TaqMan® Genotyping Master Mix (Applied Biosystems®, part number 4381657). The TaqMan® Genotyping Master Mix was diluted 1:1 with deionised water and the TaqMan® assay used at 80× concentration. The reaction was then securely sealed before Thermal Cycling. Cycle conditions: 95° C. for 10 minutes followed by 40 cycles of 92° C. for 15 seconds, 60° C. for 60 seconds in a Thermal Cycler instrument (KBiosystems DT-108 Thermal Cycler). The plate was then analysed on the Applied Biosystems® 7900HT Sequence Detection System using the pre-programmed “Allelic Discrimination” analysis in the Applied Biosystems® SDS v2.4 Software.

[4] = test system: human volunteers and patients; conditions: cited from earlier work

Chain of NR1A/2A subtype of the NMDA receptor (Q12879 23-1464, other chains not shown): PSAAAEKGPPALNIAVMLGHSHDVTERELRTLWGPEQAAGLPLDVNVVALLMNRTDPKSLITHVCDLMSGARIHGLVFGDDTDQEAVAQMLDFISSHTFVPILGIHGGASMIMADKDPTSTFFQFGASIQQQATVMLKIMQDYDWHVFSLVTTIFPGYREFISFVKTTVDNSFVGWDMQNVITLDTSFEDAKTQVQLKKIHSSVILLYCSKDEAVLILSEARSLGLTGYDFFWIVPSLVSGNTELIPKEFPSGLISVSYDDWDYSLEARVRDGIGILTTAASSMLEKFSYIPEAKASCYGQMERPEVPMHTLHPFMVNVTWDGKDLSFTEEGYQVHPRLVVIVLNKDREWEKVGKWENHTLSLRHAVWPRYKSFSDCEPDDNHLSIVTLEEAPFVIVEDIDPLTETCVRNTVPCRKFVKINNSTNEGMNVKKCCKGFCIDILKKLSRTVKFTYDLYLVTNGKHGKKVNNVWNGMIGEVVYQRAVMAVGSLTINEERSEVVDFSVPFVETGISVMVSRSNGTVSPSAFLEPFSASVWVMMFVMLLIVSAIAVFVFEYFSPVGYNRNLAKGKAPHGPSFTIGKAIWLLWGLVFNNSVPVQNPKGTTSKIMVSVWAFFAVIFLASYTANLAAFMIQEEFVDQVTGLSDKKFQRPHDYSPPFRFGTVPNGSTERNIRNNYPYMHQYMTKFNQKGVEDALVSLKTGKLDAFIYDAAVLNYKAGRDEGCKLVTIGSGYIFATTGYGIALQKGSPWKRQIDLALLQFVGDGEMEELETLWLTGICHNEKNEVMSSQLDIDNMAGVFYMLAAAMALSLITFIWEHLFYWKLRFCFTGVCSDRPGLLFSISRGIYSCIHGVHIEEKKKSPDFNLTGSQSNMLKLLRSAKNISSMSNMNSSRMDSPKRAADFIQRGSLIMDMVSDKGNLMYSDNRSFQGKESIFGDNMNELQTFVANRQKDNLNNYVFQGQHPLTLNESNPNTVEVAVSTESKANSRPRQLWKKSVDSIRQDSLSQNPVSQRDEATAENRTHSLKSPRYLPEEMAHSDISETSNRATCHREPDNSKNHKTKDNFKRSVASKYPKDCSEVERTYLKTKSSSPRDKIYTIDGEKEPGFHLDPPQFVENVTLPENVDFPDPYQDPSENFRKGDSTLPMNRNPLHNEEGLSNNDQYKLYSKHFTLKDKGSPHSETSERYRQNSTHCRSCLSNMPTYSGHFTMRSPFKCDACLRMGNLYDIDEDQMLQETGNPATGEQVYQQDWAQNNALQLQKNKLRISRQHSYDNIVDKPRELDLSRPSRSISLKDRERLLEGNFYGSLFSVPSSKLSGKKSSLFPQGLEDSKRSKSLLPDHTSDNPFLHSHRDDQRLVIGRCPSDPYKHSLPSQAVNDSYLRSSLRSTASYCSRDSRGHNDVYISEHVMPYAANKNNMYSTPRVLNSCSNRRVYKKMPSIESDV

SMILES	antidepressant effects [1]	IC50 [2] [nM]	Additive genetic effect of minor allele on change in MADRS total score ([3]; SNP rs1372472, minor allele T, therapeutic P value 0.0108)	Additive genetic effect of minor allele on change in MADRS total score ([3]; SNP rs3756007, minor allele C, therapeutic P value 0.0021)	Additive genetic effect of minor allele on change in MADRS total score ([3]; SNP rs11503016, minor allele T, therapeutic P value 0.0374)	Additive genetic effect of minor allele on change in MADRS total score ([3]; SNP rs17537359, minor allele C, therapeutic P value 0.0038)	improvement in minor allele carriers versus major allele homozygote ([3]; minor allele at rs3756007, rs11503016, rs17537359 and rs1372472, on average)	propensity for causing psychotomimetic effects ([4]; compared with effects found with ketamine exposure)	tolerability ([4]; more than 500 human volunteers and patients)
CNC1(c2ccccc2Cl)CCCCC1=O (stereo not drawn) [ketamine]	rapid antidepressant effects								
N[C@@H](Cc1ccccn1)c1ccccc1 [COMPOUND A, (S)-1-phenyl-2-(pyridin-2-yl)ethanamine]		350	−4.83	−12.84	−5.33	−9.40	greater improvement	little propensity	very well tolerated
